Assay results: article PMC6679423 (International Journal of Molecular Sciences, 2019)
Marks after values point to notes of the source that are not given here.

Assays:
Assay type in all cases: in vitro ADME
human liver microsomes [1] = assay: Vandetanib metabolite formation by hepatic microsomes of 12 human donors
Method: (§1) Vandetanib was from LC Laboratories (Woburn, MA, USA). Ketoconazole, NADPH, methimazol and other chemicals were all purchased from Sigma-Aldrich (St. Louis, MO, USA). The purity of all chemicals met the standards of American Chemical Society, unless noted otherwise. All animal experiments were conducted in accordance with the Regulations for the Care and Use of Laboratory Animals (311/1997, Ministry of Agriculture, Czech Republic), which follows the Declaration of Helsinki. Male Wistar rats (~125–150 g; AnLab, Czech Republic), male C57BL/6 mice ([…]; CXR Bioscience Ltd., Dundee, UK), and male New Zealand rabbits (2.5–3 kg; AnLab, Czech Republic) were employed as animal models. Animals were placed in cages in temperature- and humidity-controlled rooms, acclimatized for five days and maintained at 22 °C with a 12 h light/dark period. Standardized diet and water were provided ad libitum. Rats, mice and rabbits used to prepare microsomal fraction from untreated animals were sacrificed by cervical dislocation, livers snap-frozen in liquid nitrogen and stored at −80 °C until further processing (see below). For controls, livers of the animals were removed immediately after sacrifice, divided into small pieces (~1 g), snap-frozen in liquid nitrogen, and stored at −80 °C until isolation of microsomal fractions. Pooled microsomes were used for all in vitro experiments in the present study and prepared from 10 livers/group for all animal species following established protocols. Microsomal fractions were stored at −80 °C until analysis. Protein concentrations in the microsomal fractions were assessed using the bicinchoninic acid protein assay with bovine serum albumin as a standard. Male human hepatic microsomes (pooled sample) (sample LOT: 3043885) were from Gentest Corp. (Woburn, MA, USA). Microsomes from livers of twelve human donors were obtained from Gentest Corp. (Woburn, MA, USA) (cat. no. HG43–1, HG103, HG74, HG93, HG24, HG27, HG23, HG32, HK31, HK34, HG03, and HG42). Each human microsomal sample has been characterized for CYP, FMO and protein contents and specific CYP activities by Gentest Corp. We reanalyzed each microsomal preparation for specific CYP, NADPH:CYP reductase (POR) and FMO activities by assays described in the protocols of Gentest Corp. Our data were similar to those reported by Gentest Corp. in their specification sheets. The content of CYP, specific CYP and FMO activities in each human hepatic microsomes [phenacetin-O-deethylation (CYP1A2), coumarin-7-hydroxylation (CYP2A6), (S)-mephenytoin-N-demethylase (CYP2B6), paclitaxel-6α-hydroxylation (CYP2C8), diclofenac-4’-hydroxylation (CYP2C9), (S)-mephenytoin-4′-hydroxylation (CYP2C19), bufuralol-1’-hydroxylation (CYP2D6), chlorzoxazone-6-hydroxylation (CYP2E1), testosterone-6β-hydroxylation (CYP3A4), lauric acid-12-hydroxylation (CYP4A), methyl-p-tolyl sulfide oxidase (FMO)] are shown in Table 2. Human recombinant enzymes were used in the forms of Supersomes™ and obtained from Gentest Corp. In Supersomes™ microsomal fractions were isolated from insect cells that are transfected with baculovirus constructs containing cDNA of human CYP enzymes (CYP1A1/2, 1B1, 2A6, 2B6, 2C8/9/18/19/, 2D6, 2E1, 3A4). These Supersomes™ also express NADPH:CYP oxidoreductase (POR). However, because they are microsomes (particles of broken endoplasmic reticulum), other enzymes (proteins) of the endoplasmic reticulum membrane (like NADH:cytochrome b5 reductase and cytochrome b5) are also expressed at basal levels in these Supersomes™. We also utilized Supersomes™ which over-expressed cytochrome b5, in a molar ratio of CYP to cytochrome b5 of 1 to 5. In Supersomes™ where cytochrome b5 was not over-expressed (see above) pure cytochrome b5 was added to reach a molar ratio of CYP to cytochrome b5 of 1 to 5. Reconstitution of Supersomes™ with purified cytochrome b5 was performed as described previously. […]

human recombinant CYP1A1 = biological target: T1, human recombinant CYP1A1 (Homo sapiens, UniProt P04798); assay: Vandetanib oxidation by human recombinant CYP1A1 (Supersomes)
T1 construct: purchased Gentest Corp; host or cells: insect cells (baculovirus)
T1 sequence (P04798 1-512): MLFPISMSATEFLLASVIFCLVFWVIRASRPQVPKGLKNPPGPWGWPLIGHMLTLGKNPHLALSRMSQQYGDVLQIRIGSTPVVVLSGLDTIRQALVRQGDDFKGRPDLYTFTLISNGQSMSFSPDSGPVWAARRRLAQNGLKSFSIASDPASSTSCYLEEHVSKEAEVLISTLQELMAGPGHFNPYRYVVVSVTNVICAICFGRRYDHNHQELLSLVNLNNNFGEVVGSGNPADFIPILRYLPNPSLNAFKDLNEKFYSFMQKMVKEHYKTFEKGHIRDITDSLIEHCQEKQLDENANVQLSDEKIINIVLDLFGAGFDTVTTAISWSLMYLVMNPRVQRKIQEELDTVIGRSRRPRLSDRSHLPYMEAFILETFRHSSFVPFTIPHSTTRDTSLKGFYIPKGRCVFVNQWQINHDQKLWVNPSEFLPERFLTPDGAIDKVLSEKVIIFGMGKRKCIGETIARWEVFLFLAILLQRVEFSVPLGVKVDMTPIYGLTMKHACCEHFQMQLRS
Method: Vandetanib was from LC Laboratories (Woburn, MA, USA). Ketoconazole, NADPH, methimazol and other chemicals were all purchased from Sigma-Aldrich (St. Louis, MO, USA). The purity of all chemicals met the standards of American Chemical Society, unless noted otherwise. All animal experiments were conducted in accordance with the Regulations for the Care and Use of Laboratory Animals (311/1997, Ministry of Agriculture, Czech Republic), which follows the Declaration of Helsinki. Male Wistar rats (~125–150 g; AnLab, Czech Republic), male C57BL/6 mice ([…]; CXR Bioscience Ltd., Dundee, UK), and male New Zealand rabbits (2.5–3 kg; AnLab, Czech Republic) were employed as animal models. Animals were placed in cages in temperature- and humidity-controlled rooms, acclimatized for five days and maintained at 22 °C with a 12 h light/dark period. Standardized diet and water were provided ad libitum. Rats, mice and rabbits used to prepare microsomal fraction from untreated animals were sacrificed by cervical dislocation, livers snap-frozen in liquid nitrogen and stored at −80 °C until further processing (see below). For controls, livers of the animals were removed immediately after sacrifice, divided into small pieces (~1 g), snap-frozen in liquid nitrogen, and stored at −80 °C until isolation of microsomal fractions. Pooled microsomes were used for all in vitro experiments in the present study and prepared from 10 livers/group for all animal species following established protocols. Microsomal fractions were stored at −80 °C until analysis. Protein concentrations in the microsomal fractions were assessed using the bicinchoninic acid protein assay with bovine serum albumin as a standard. Male human hepatic microsomes (pooled sample) (sample LOT: 3043885) were from Gentest Corp. (Woburn, MA, USA). Microsomes from livers of twelve human donors were obtained from Gentest Corp. (Woburn, MA, USA) (cat. no. HG43–1, HG103, HG74, HG93, HG24, HG27, HG23, HG32, HK31, HK34, HG03, and HG42). Each human microsomal sample has been characterized for CYP, FMO and protein contents and specific CYP activities by Gentest Corp. We reanalyzed each microsomal preparation for specific CYP, NADPH:CYP reductase (POR) and FMO activities by assays described in the protocols of Gentest Corp. Our data were similar to those reported by Gentest Corp. in their specification sheets. […]

human hepatic microsomes = assay: Correlation of CYP- and FMO-linked activities with vandetanib metabolite formation in human hepatic microsomes; conditions: 12 human liver microsomal samples; for Correlation coefficient (r) of metabolite amount with CYP2B6 activity: (S)-mephenytoin-N-demethylase; for Correlation coefficient (r) of metabolite amount with CYP2A6 activity: coumarine-7-hydroxylase; for Correlation coefficient (r) of metabolite amount with CYP2C8 activity: paclitaxel-6α-hydroxylase; for Correlation coefficient (r) of metabolite amount with CYP3A4 activity: testosterone-6β-hydroxylase
Method: as §1

human recombinant CYP3A5 = assay: Vandetanib oxidation by human recombinant CYP3A5 (Supersomes)
Method: Vandetanib was from LC Laboratories (Woburn, MA, USA). Ketoconazole, NADPH, methimazol and other chemicals were all purchased from Sigma-Aldrich (St. Louis, MO, USA). The purity of all chemicals met the standards of American Chemical Society, unless noted otherwise. All animal experiments were conducted in accordance with the Regulations for the Care and Use of Laboratory Animals (311/1997, Ministry of Agriculture, Czech Republic), which follows the Declaration of Helsinki. Male Wistar rats (~125–150 g; AnLab, Czech Republic), male C57BL/6 mice ([…]; CXR Bioscience Ltd., Dundee, UK), and male New Zealand rabbits (2.5–3 kg; AnLab, Czech Republic) were employed as animal models. Animals were placed in cages in temperature- and humidity-controlled rooms, acclimatized for five days and maintained at 22 °C with a 12 h light/dark period. Standardized diet and water were provided ad libitum. Rats, mice and rabbits used to prepare microsomal fraction from untreated animals were sacrificed by cervical dislocation, livers snap-frozen in liquid nitrogen and stored at −80 °C until further processing (see below). […] Protein concentrations in the microsomal fractions were assessed using the bicinchoninic acid protein assay with bovine serum albumin as a standard. […]

human liver microsomes [2] = assay: Vandetanib metabolite formation by hepatic microsomes of 12 human donors; remark: listed apart in the source
[3] = without consideration of cytochrome b5

COc1cc2c(Nc3ccc(Br)cc3F)ncnc2cc1OCC1CCNCC1 [N-desmethylvandetanib]
N-desmethylvandetanib (M1) formed (human liver microsomes [1]; human hepatic microsomal sample HG03): 3.639 peak area/(mg protein × min)
N-desmethylvandetanib (M1) formed (human liver microsomes [1]; human hepatic microsomal sample HG24): 1.698 peak area/(mg protein × min)
N-desmethylvandetanib (M1) formed (human liver microsomes [1]; human hepatic microsomal sample HG32): 0.870 peak area/(mg protein × min)
N-desmethylvandetanib (M1) formed (human liver microsomes [1]; human hepatic microsomal sample HG42): 8.887 peak area/(mg protein × min)
N-desmethylvandetanib (M1) formed (human liver microsomes [1]; human hepatic microsomal sample HG43): 1.830 peak area/(mg protein × min)
N-desmethylvandetanib (M1) formed (human liver microsomes [1]; human hepatic microsomal sample HG74): 0.714 peak area/(mg protein × min)
N-desmethylvandetanib (M1) formed (human liver microsomes [1]; human hepatic microsomal sample HG93): 0.966 peak area/(mg protein × min)
N-desmethylvandetanib (M1) formed (human liver microsomes [1]; human hepatic microsomal sample HG103): 1.021 peak area/(mg protein × min)
N-desmethylvandetanib (M1) formed (human liver microsomes [1]; human hepatic microsomal sample HK31): 4.124 peak area/(mg protein × min)
N-desmethylvandetanib (M1) formed (human liver microsomes [1]; human hepatic microsomal sample HK34): 3.193 peak area/(mg protein × min)
effect of cytochrome b5 on N-desmethylvandetanib formation (human recombinant CYP1A1; CYP1A1 with vs without cytochrome b5): essentially no such effect
contribution of CYP1A1 to N-desmethylvandetanib formation in human liver (human recombinant CYP1A1; [3]): < 0.3%
Correlation coefficient (r) of metabolite amount with Cyt b5 (human hepatic microsomes): −0.114
Correlation coefficient (r) of metabolite amount with POR (human hepatic microsomes): 0.700
Correlation coefficient (r) of metabolite amount with Total CYPs (human hepatic microsomes): 0.786 **
Correlation coefficient (r) of metabolite amount with CYP2C19 activity (human hepatic microsomes; (S)-mephenytoin-4′-hydroxylase): −0.168
Correlation coefficient (r) of metabolite amount with CYP2B6 activity (human hepatic microsomes): 0.826
Correlation coefficient (r) of metabolite amount with CYP2B6 activity (human hepatic microsomes; listed as M1): 0.826 ***
Correlation coefficient (r) of metabolite amount with CYP2D6 activity (human hepatic microsomes; bufuralol-1′-hydroxylase): 0.165
Correlation coefficient (r) of metabolite amount with CYP2E1 activity (human hepatic microsomes; chlorzoxazone-6-hydroxylase): 0.043
Correlation coefficient (r) of metabolite amount with CYP2A6 activity (human hepatic microsomes): 0.778
Correlation coefficient (r) of metabolite amount with CYP2A6 activity (human hepatic microsomes; listed as M1): 0.778 **
Correlation coefficient (r) of metabolite amount with CYP2C9 activity (human hepatic microsomes; diclofenac-4′-hydroxylase): −0.034
Correlation coefficient (r) of metabolite amount with FMO activity (human hepatic microsomes; methyl-p-tolyl sulfide oxidase): 0.270
Correlation coefficient (r) of metabolite amount with CYP2C8 activity (human hepatic microsomes): 0.747
Correlation coefficient (r) of metabolite amount with CYP2C8 activity (human hepatic microsomes; listed as M1): 0.747 **
Correlation coefficient (r) of metabolite amount with CYP1A2 activity (human hepatic microsomes; phenacetin-O-deethylase): 0.018
Correlation coefficient (r) of metabolite amount with CYP3A4 activity (human hepatic microsomes): 0.984
Correlation coefficient (r) of metabolite amount with CYP3A4 activity (human hepatic microsomes; listed as M1): 0.984 ***
fold increase of N-desmethylvandetanib formation by cytochrome b5 (human recombinant CYP3A5; CYP3A5 with vs without cytochrome b5): 7 fold
contribution of CYP3A5 to N-desmethylvandetanib formation in human liver (human recombinant CYP3A5; [3]): < 0.3%
N-desmethylvandetanib (M1) formed (human liver microsomes [2]; human hepatic microsomal sample HK23): 4.137 peak area/(mg protein × min)
N-desmethylvandetanib (M1) formed (human liver microsomes [2]; human hepatic microsomal sample HK27): 1.762 peak area/(mg protein × min)
